PMC6661766, “Antimicrobial, antioxidant and cytotoxic evaluation of diazenyl chalcones along with insights to mechanism of interaction by molecular docking studies” (BMC Chemistry, 2019)
≈ marks a conversion by molar mass, not a printed value. Read-outs that look alike come from different tables or passages of the source.

Legend:
B. subtilis = experiment: Antimicrobial serial tube dilution, MIC and MBC; assay type: cell-based, Bacillus subtilis MTCC 2063
Procedure: (§1) The synthesized diazenyl chalcones (C18 to C27) and controls (dyes A and E, and chalcone) were assessed for their antimicrobial activity by estimation of MIC and MBC/MFC values. […] The stock solutions of the test compounds and standard drugs having a concentration of 1000 µg ml^−1 were prepared by dissolving the used compounds in DMSO. The nutrient broth/Sabouraud dextrose broth was used for the serial dilution of the test compounds and referenced drugs for bacterial and fungal cultures, respectively. […] The size of the final inoculum in each test tube was taken as 5 × 10^5 CFU ml^−1. The incubation of the test and standard compounds of varying concentrations was done for 24 h at 37 ± 2 °C (bacterial culture) and for 48 h at 37 ± 2 °C (C. albicans) and for 7 d at 25 ± 2 °C (A. fumigatus). The diazenyl chalcones (C18–C27), were further evaluated for their bactericidal/fungicidal activity by estimation of MBC/MFC values. […] For proper mixing of culture media, the plates were shaken gently followed by incubation at the predefined temperature and time as stated earlier, followed by the visual inspection of the plates for signs of microbial growth.

B. cereus = experiment: Antimicrobial serial tube dilution, MIC and MBC; assay type: cell-based, Bacillus cereus MTCC 1305
Procedure: as §1

C. albicans = experiment: Antimicrobial serial tube dilution, MIC and MFC; assay type: cell-based, Candida albicans MTCC 227
Procedure: as §1

A. fumigatus = experiment: Antimicrobial serial tube dilution, MIC and MFC; assay type: cell-based, Aspergillus fumigatus MTCC 2584
Procedure: as §1

S. aureus = experiment: Antimicrobial serial tube dilution, MIC and MBC; assay type: cell-based, Staphylococcus aureus MTCC 2901
Procedure: as §1

[1] = DPPH scavenging antioxidant assay
Procedure: The derivatives (C18–C27) were assessed for their antioxidant potential in the presence of the stable free radical DPPH using ascorbic acid as the standard compound [36, 37]. […] The total volume of 200 µl was used in each well for each concentration of the test and standard drug containing 0.004 µg DPPH. The assay was performed in triplicate at all concentrations of each sample and standard compound. DPPH solutions in methanol at the same concentration without test drugs were used as the control. Each concentration of the sample and standard has a different blank. To minimize evaporation, the plate was covered with the lid and wrapped in aluminium foil and kept in the dark place in order to protect the DPPH radical from degradation by light and left for 30 min. After 30 min of incubation, the plate was kept in ELISA reader to measure the absorbance values at 517 nm. The experiment was performed in triplicate. The antioxidant activity of each sample was then calculated as per cent inhibition of DPPH according to the following equation: %decolourationofDPPH=ControlAbs-SampleAbs×100/ControlAbs

E. coli = experiment: Antimicrobial serial tube dilution, MIC and MBC; assay type: cell-based, Escherichia coli MTCC 1652; settings: for MBC / MIC: Escherichia coli; for MBC: read-out: E. coli MBC
Procedure: as §1

S. typhi = experiment: Antimicrobial serial tube dilution, MIC and MBC; assay type: cell-based, Salmonella typhi MTCC 3216; settings: for MIC / MBC: Salmonella enterica, TYPHI; for MIC: 24 h, read-out: S. typhi MIC; for MBC: read-out: S. typhi MBC
Procedure: as §1

[2] = Bacillus subtilis, 24 h, read-out: B. subtilis MIC
[3] = Bacillus cereus, 24 h, read-out: B. cereus MIC
[4] = Bacillus cereus; read-out: B. cereus MBC
[5] = Staphylococcus aureus; 24 h at 37 ± 2 °C; read-out: S. aureus MIC
[6] = Staphylococcus aureus; read-out: S. aureus MBC
[7] = Bacillus subtilis, read-out: B. subtilis MBC
[8] = 24 h, read-out: E. coli MIC, 24 h at 37 ± 2 °C

Compound | IC50 DPPH [1] [µg/mL] | % inhibition of DPPH ([1]; 1.56 µg ml^−1) [%] | % inhibition of DPPH ([1]; 3.12 µg ml^−1) [%] | % inhibition of DPPH ([1]; 6.25 µg ml^−1) [%] | % inhibition of DPPH ([1]; 12.5 µg ml^−1) [%] | % inhibition of DPPH ([1]; 25 µg ml^−1) [%] | % inhibition of DPPH ([1]; 50 µg ml^−1) [%] | % inhibition of DPPH ([1]; 100 µg ml^−1) [%] | MIC (B. subtilis; [2]) [µg/mL] | MIC (B. cereus; [3]) [µg/mL] | MBC (B. cereus; [4]) [µg/mL] | MIC (S. aureus; [5]) [µg/mL] | MBC (S. aureus; [6]) [µg/mL] | MBC (E. coli) [µg/mL] | MIC (S. typhi) [µg/mL] | MBC (S. typhi) [µg/mL] | MBC (B. subtilis; [7]) [µg/mL] | MIC (E. coli; [8]) [µg/mL] | also measured
O=C(/C=C/c1ccc(Cl)cc1Cl)c1ccc(O)cc1 [Chalcone, (E)-3-(2,4-dichlorophenyl)-1-(4-hydroxyphenyl)prop-2-en-1-one] | 76.77 (≈ 262 µM) | 6.54 | 8.12 | 10.76 | 16.90 | 21.57 | 34.56 | 51.80 |  |  |  |  |  |  |  |  |  |  | B. subtilis MBC (B. subtilis): 62.5 µg/mL; B. subtilis MIC (B. subtilis; 24 h at 37 ± 2 °C): 62.5 µg/mL; B. cereus MBC (B. cereus): 62.5 µg/mL; B. cereus MIC (B. cereus; 24 h at 37 ± 2 °C): 62.5 µg/mL; C. albicans MFC (C. albicans): 125 µg/mL; C. albicans MIC (C. albicans; 48 h at 37 ± 2 °C): 125 µg/mL; A. fumigatus MFC (A. fumigatus): 125 µg/mL; A. fumigatus MIC (A. fumigatus; 7 d at 25 ± 2 °C): 125 µg/mL; S. aureus MBC (S. aureus): 62.5 µg/mL; S. aureus MIC (S. aureus; 24 h at 37 ± 2 °C): 31.25 µg/mL; E. coli MBC (E. coli): 31.25 µg/mL; E. coli MIC (E. coli; 24 h at 37 ± 2 °C): 15.62 µg/mL; S. typhi MBC (S. typhi): 62.5 µg/mL; S. typhi MIC (S. typhi; 24 h at 37 ± 2 °C): 31.25 µg/mL
O=C(O)c1cn(C2CC2)c2cc(N3CCNCC3)c(F)cc2c1=O [CIP, ciprofloxacin, reference compound] |  |  |  |  |  |  |  |  | 7.81 (≈ 23.6 µM) | 7.81 (≈ 23.6 µM) | 15.6 (≈ 47.1 µM) | 1.95 (≈ 5.89 µM) | 3.9 (≈ 11.8 µM) | 7.81 (≈ 23.6 µM) | 7.81 (≈ 23.6 µM) | 7.81 (≈ 23.6 µM) |  |  | MBC (B. subtilis; Bacillus subtilis; read-out: B. subtilis MBC): 15.6 µg/mL (≈ 47.1 µM); MIC (E. coli; 24 h at 37 ± 2 °C, read-out: E. coli MIC): 3.9 µg/mL (≈ 11.8 µM)
O=C1O[C@H]([C@@H](O)CO)C(O)=C1O [Ascorbic acid, ascorbic acid, reference compound] | 4.45 (≈ 25.3 µM) | 39.22 | 46.53 | 80.07 | 84.09 | 87.81 | 89.95 | 90.31 |  |  |  |  |  |  |  |  |  |  | IC50 DPPH ([1]; listed as Ascorbic Acid): 4.451 µg/mL (≈ 25.3 µM)
CO/N=C(\C(=O)N[C@@H]1C(=O)N2C(C(=O)O)=C(COC(C)=O)CS[C@H]12)c1csc(N)n1 [Cefotaxime, cefotaxime, reference compound] |  |  |  |  |  |  |  |  |  | 7.81 (≈ 17.1 µM) | 15.6 (≈ 34.3 µM) | 15.6 (≈ 34.3 µM) | 31.2 (≈ 68.6 µM) | 7.81 (≈ 17.1 µM) | 3.9 (≈ 8.56 µM) | 7.81 (≈ 17.1 µM) | 7.81 (≈ 17.1 µM) | 7.81 (≈ 17.1 µM) | MIC (B. subtilis; Bacillus subtilis; 24 h at 37 ± 2 °C; read-out: B. subtilis MIC): 1.95 µg/mL (≈ 4.28 µM)
CC(=O)c1ccc(O)c(N=Nc2cccc(Cl)c2Cl)c1 [Dye A, 1-(3-((2,3-Dichlorophenyl)diazenyl)-4-hydroxyphenyl)ethanone] | > 100 | 4.65 | 9.23 | 11.97 | 17.67 | 22.18 | 29.87 | 35.45 | 125 (≈ 404 µM) | 31.2 (≈ 101 µM) |  |  |  | 31.2 (≈ 101 µM) | 62.5 (≈ 202 µM) | 62.5 (≈ 202 µM) | 125 (≈ 404 µM) | 15.6 (≈ 50.5 µM) | MBC (B. cereus; Bacillus cereus, read-out: B. cereus MBC): 31.2 µg/mL (≈ 101 µM); MIC (C. albicans; Candida albicans, 48 h, read-out: C. albicans MIC): 62.5 µg/mL (≈ 202 µM); MFC (C. albicans; Candida albicans, read-out: C. albicans MFC): 62.5 µg/mL (≈ 202 µM); melting point: 140 to 142 °C; MIC (A. fumigatus; Aspergillus fumigatus, 168 h, read-out: A. fumigatus MIC): 125 µg/mL (≈ 404 µM); MFC (A. fumigatus; Aspergillus fumigatus, read-out: A. fumigatus MFC): 125 µg/mL (≈ 404 µM); MIC (S. aureus; Staphylococcus aureus, 24 h, read-out: S. aureus MIC): 125 µg/mL (≈ 404 µM); MBC (S. aureus; Staphylococcus aureus, read-out: S. aureus MBC): 125 µg/mL (≈ 404 µM)
